# Experimental data: patent US11390621B2, “Chiral indole compounds and their use” (ARIAGEN, INC., priority 2019, dated 2022)
# Several values for one entry are separate records, joined by “and”; a condition that tells them apart may be missing. Equal entries are not always repeated. Where two headings read alike, the source gives them in different places. Marks after values point to notes of the source that are not given here.
# Legend:
# [1] = In vivo pharmacokinetic studies in mice; set-up: species or system Balb/C mice; conditions: for AUC(0-t): read-out: AUClast; for AUC(0-inf): read-out: AUCinf
# [2] = test system: Pan02 cancer cells; experiment: Pan02 subcutaneous syngeneic mouse tumor model (Example 48); type: in vivo, C57BL/6 mice; conditions: for TGI: 20 mg/kg, IP
# Method: This example describes in vivo studies that evaluated the anti-cancer efficacy of ARI-143, ARI-164, ARI-165, and ARI-186 in syngeneic mouse tumor models. Mice implanted subcutaneously with EMT-6 or Pan02 cancer cells were treated with ARI-143, ARI-164, ARI-165, ARI-186, or vehicle controls, as described below.
# A monolayer culture of tumor cells was maintained in vitro in DMEM or RPMI1640 medium supplemented with 10% fetal bovine serum at 37° C. in an atmosphere of 5% CO2. Cells in exponential growth phase were harvested and quantitated by cell counter before tumor inoculation. The cell lines used are described in the table below.
# Two subcutaneous syngeneic mouse tumor models were generated by innoculating female BALB/C or C57BL/6 mice with cancer cells at their right lower or front flank as detailed in the table below:
# Each mouse was inoculated subcutaneously with tumor cells in 0.1 mL of PBS. Treatments were started when the mean tumor size reached approximately 80-120 mm^3 (around 100 mm^3). The administration of the test compounds and the animal number in each study group are shown in the study design. The date of tumor cell inoculation was denoted as day 0.
# ARI-143, ARI-164, and ARI-165 were dissolved in DMSO at the final concentration of 26.7 mg/ml and stored at room temperature. In Pan02 studies of ARI-164 and ARI-186, both compounds were dissolved in 100% PEG400.
# Randomization of animals was started when the mean tumor size reached approximately 90 mm^3 to form the mouse study groups. The randomization was-performed based on “Matched distribution” method using the multi-task method (StudyDirector™ software, version 3.1.399.19)/randomized block design. […]
# After tumor cell inoculation, the mice were checked daily for morbidity and mortality. During routine monitoring, the mice were checked for tumor growth and any effects of the treatment on behavior such as mobility, food and water consumption, body weight gain/loss (body weights were measured twice per week after randomization), eye/hair matting, and any other abnormalities. Mortality and observed clinical signs were recorded for individual mice in detail.
# Tumor volumes were measured twice per week in two dimensions using a caliper, and the volume was expressed in mm^3 using the formula: V=(L×W×W)/2, where V is tumor volume, L is tumor length (the longest tumor dimension) and W is tumor width (the longest tumor dimension perpendicular to L). Dosing as well as tumor and body weight measurements was conducted in a Laminar Flow Cabinet. The body weights and tumor volumes were measured by using StudyDirector™ software (version 3.1.399.19). Dosing Holiday
# Tumor growth inhibition percentage (TGI %) is an indicator for antitumor activity of a drug compound, and expressed as: TGI(%)=100×(1−T/C), where T and C are the mean tumor volume (or weight) of the treated and control groups, respectively, on a given day. Statistical analysis of the difference in mean tumor volume (MTV) among the groups was conducted using the data collected on the day when the MTV of the vehicle group reached the humane endpoints, so that TGI could be derived for all or most mice enrolled in the study.
# [3] = In vivo pharmacokinetic studies in rats; set-up: species or system SD rats; conditions: rats; for AUC: SD; for AUC(0-t): read-out: AUClast; for Tmax at 1 day: read-out: Tmax
# How it was run: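 Mice and rats (N=3/group) dosed IV at 2 mg/kg in DMSO or PO at 10, 30 or 40 mg/kg in PEG400/Tween 80 50/50; PEG400/Kolliphor HS15/oleic acid 45/45/10 used for one repeat-dose rat study. Repeat dosing in rats was PO 10 mg/kg QD for 5 days. Plasma sampled pre-dose to 24 h post-dose, measured by HPLC.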
# [4] = Balb/C, mouse, plasma, mice, single 40 mg/kg oral dose
# [5] = mice, single 40 mg/kg oral dose
# [6] = mouse, plasma, Balb/C mice, single dose IP 40 mg/kg
# [7] = mouse, plasma, Balb/C mice, single dose IV 5 mg/kg
# [8] = mouse, plasma, Balb/C mice, single dose PO 10 mg/kg
# [9] = mouse, plasma, Balb/C mice, single dose PO 40 mg/kg
# [10] = Sprague-Dawley (SD), rat, plasma, po, 10 mg/kg, repeat 10 mg/kg PO QD, Day 1, Mean of 3 animals
# [11] = Sprague-Dawley, rat, plasma, po, 10 mg/kg, repeat 10 mg/kg PO QD, Day 1, individual animal
# [12] = Sprague-Dawley, rat, plasma, po, 10 mg/kg, repeat 10 mg/kg PO QD, Day 5, Mean
# [13] = Sprague-Dawley, rat, plasma, po, 10 mg/kg, repeat 10 mg/kg PO QD, Day 5, individual animal
# [14] = repeat 10 mg/kg PO QD, Day 1, individual animal
# [15] = repeat 10 mg/kg PO QD, Day 5, individual animal
structure (smiles),measurement,setting,value
"CC[C@H](N)c1csc(C(=O)c2c[nH]c3cc(F)ccc23)n1 [ARI-186, (S)-(4-(1-aminopropyl)thiazol-2-yl)(6-fluoro-1H-indol-3-yl)methanone]",F*,"[1]; Balb/C mice, single dose IP 40 mg/kg (value marked **)",81.4** %
same,F*,"[1]; Balb/C mice, single dose PO 10 mg/kg",63.0%
same,F*,"[1]; Balb/C mice, single dose PO 40 mg/kg (value marked **)",75.7** %
same,AUC,[1]; [4],73900 ng·h/mL
same,bioavailability,[1]; [4],75.7%
same,half-life,"[1]; Balb/C, mouse, plasma, mice, read-out: half-life (converted)",~7.6 h
same,improvement in AUC over ARI-164 (fold),[1]; [5],24.6 ×
same,improvement in oral bioavailability over ARI-164 (fold),[1]; [5],5.0 ×
same,Cmax,[1]; [6],6230 ng/mL
same,MRT last,[1]; [6],11.2 h
same,Tmax,[1]; [6],0.5 h
same,AUC(0-t),[1]; [6],79400 ng·h/mL
same,Cmax,[1]; [7],2130 ng/mL
same,MRT inf,[1]; [7],9.55 h
same,MRT last,[1]; [7],6.99 h
same,Tmax,[1]; [7],0.083 h
same,clearance,[1]; [7],6.18 mL/min/kg
same,AUC(0-inf),[1]; [7],13500 ng·h/mL
same,AUC(0-t),[1]; [7],12200 ng·h/mL
same,half-life,"[1]; mouse, plasma, Balb/C mice, single dose IV 5 mg/kg, read-out: T1/2 (converted)",7.62 h
same,Vd,"[1]; mouse, plasma, Balb/C mice, single dose IV 5 mg/kg, read-out: Vss",3.55 L/kg
same,Cmax,[1]; [8],1380 ng/mL
same,MRT inf,[1]; [8],8.21 h
same,MRT last,[1]; [8],6.76 h
same,Tmax,[1]; [8],2 h
same,AUC(0-inf),[1]; [8],17000 ng·h/mL
same,AUC(0-t),[1]; [8],16100 ng·h/mL
same,half-life,"[1]; mouse, plasma, Balb/C mice, single dose PO 10 mg/kg, read-out: T1/2 (converted)",5.56 h
same,Cmax,[1]; [9],5000 ng/mL
same,MRT last,[1]; [9],9.35 h
same,Tmax,[1]; [9],2 h
same,AUC(0-t),[1]; [9],73900 ng·h/mL
same,TGI,[2]; study day 0,−2.0%
same,TGI,[2]; study day 4,−13.0%
same,TGI,[2]; study day 7,−0.3%
same,TGI,[2]; study day 11,27.0%
same,TGI,[2]; study day 14,49.5%
same,TGI,[2]; study day 18,61.9%
same,tumor inhibition versus vehicle,"[2]; Pan02 tumors, 20 mpk i.p. QD, study day 18",62%
same,AUC,"[3]; rat, plasma, po, 10 mg/kg, repeat oral dosing 10 mg/kg QD, read-out: AUC on day 1",5940 ng·h/mL
same,AUC,"[3]; rat, plasma, po, 10 mg/kg, repeat oral dosing 10 mg/kg QD, read-out: AUC on day 5",29100 ng·h/mL
same,AUC(0-inf),[3]; [10],6480 ng·h/mL
same,Cmax at 1 day,[3]; [10],399 ng/mL
same,MRT inf at 1 day,[3]; [10],10.1 h
same,MRT last at 1 day,[3]; [10],8.06 h
same,half-life at 1 day,[3]; [10],6.04 h
same,AUC(0-t),[3]; [10],5940 ng·h/mL
same,Tmax at 1 day,[3]; [10],6.67 h
same,AUC(0-t),"[3]; Sprague-Dawley (SD), rat, plasma, po, 10 mg/kg, repeat 10 mg/kg PO QD, Day 5, individual animal",33600 ng·h/mL
same,AUC(0-inf),[3]; [11],6920 ng·h/mL
same,Cmax at 1 day,[3]; [11],397 ng/mL
same,MRT inf at 1 day,[3]; [11],10.5 h
same,MRT last at 1 day,[3]; [11],8.14 h
same,half-life at 1 day,[3]; [11],6.44 h
same,AUC(0-t),[3]; [11],6260 ng·h/mL
same,Tmax at 1 day,[3]; [11],8 h
same,Cmax at 5 day,[3]; [12],1580 ng/mL
same,MRT last at 5 day,[3]; [12],11.5 h
same,Tmax at 5 day,[3]; [12],4.67 h
same,AUC(0-t),[3]; [12],29100 ng·h/mL
same,Cmax at 5 day,[3]; [13],1610 ng/mL
same,MRT last at 5 day,[3]; [13],11.6 h
same,behaviour of exposure after 5 days of repeat dosing (in words),[3]; 10 mg/kg PO QD for 5 days,accumulation towards steady state
same,AUCinf,[3]; [14],6000 ng·h/mL and 6510 ng·h/mL
same,AUClast,[3]; [14],5400 ng·h/mL and 6150 ng·h/mL
same,Cmax,[3]; [14],359 ng/mL and 441 ng/mL
same,MRTinf,[3]; [14],10.9 h and 8.93 h
same,MRTlast,[3]; [14],8.40 h and 7.63 h
same,T1/2,[3]; [14],6.45 h and 5.22 h
same,Tmax,[3]; [14],4 h
same,AUClast,[3]; [15],24600 ng·h/mL
same,Cmax,[3]; [15],1310 ng/mL and 1810 ng/mL
same,MRTlast,[3]; [15],11.4 h
same,Tmax,[3]; [15],4 h
same,accumulation (AUC day 5 vs day 1),[3]; repeat oral dosing 10 mg/kg QD,4.9 ×
